Measured values published in ChEMBL document CHEMBL1201862, “PubChem BioAssay data set” (2004).
The source made the active and inactive calls.

Key:
[1] = tested on: Streptococcus sp. 'group A'; test: growth inhibition of control SK(-) GAS strain, dose response, counter-screen for streptokinase expression inhibitor project, luminescence, kanamycin, BacTiterGlo, confirmation (AID 1900); type: functional, organism-based
[2] = target: T1, Caspase-3 (Homo sapiens, UniProt P42574); type: functional;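 also: Dose-response selectivity test against caspase-3 for candidate inhibitors of sentrin-specific proteases (SENPs)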
T1 sequence (P42574 whole entry): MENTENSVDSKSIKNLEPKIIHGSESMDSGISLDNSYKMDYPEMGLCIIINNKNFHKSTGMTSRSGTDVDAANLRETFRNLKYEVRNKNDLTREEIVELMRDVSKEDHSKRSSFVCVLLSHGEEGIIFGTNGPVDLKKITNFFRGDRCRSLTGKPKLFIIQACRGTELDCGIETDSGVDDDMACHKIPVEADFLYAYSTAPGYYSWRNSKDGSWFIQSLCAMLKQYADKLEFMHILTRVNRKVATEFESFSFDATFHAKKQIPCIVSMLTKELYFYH

[3] = target: T2, Protein RecA (Mycobacterium tuberculosis, UniProt P9WHJ3); test: Fluorescence Cell-Free Homogeneous Dose Retest to Identify Inhibitors of RecA-Intein Splicing Activity. [Related pubchem assays (depositor defined):AID2097, AID2223, AID489010, AID492950]; type: functional
T2 sequence (P9WHJ3 whole entry): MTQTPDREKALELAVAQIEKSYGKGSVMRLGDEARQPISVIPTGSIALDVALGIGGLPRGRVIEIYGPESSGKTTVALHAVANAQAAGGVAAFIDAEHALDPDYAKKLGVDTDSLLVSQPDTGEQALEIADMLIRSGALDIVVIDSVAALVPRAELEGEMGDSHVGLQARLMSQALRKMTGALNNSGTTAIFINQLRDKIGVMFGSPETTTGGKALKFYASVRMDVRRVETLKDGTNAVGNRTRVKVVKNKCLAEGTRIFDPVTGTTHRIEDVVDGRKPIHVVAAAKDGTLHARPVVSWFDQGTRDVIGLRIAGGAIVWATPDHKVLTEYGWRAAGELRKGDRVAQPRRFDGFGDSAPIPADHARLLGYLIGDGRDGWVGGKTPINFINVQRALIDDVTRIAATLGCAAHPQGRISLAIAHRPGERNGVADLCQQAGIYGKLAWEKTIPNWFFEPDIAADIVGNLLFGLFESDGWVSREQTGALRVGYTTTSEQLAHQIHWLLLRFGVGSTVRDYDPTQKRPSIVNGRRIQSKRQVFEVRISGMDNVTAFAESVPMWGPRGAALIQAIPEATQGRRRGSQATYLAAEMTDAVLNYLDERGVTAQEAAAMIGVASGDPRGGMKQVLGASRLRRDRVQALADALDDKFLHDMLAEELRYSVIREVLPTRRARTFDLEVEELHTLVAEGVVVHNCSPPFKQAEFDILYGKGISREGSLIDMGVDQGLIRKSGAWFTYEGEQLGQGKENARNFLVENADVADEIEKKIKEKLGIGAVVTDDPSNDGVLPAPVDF

[4] = target: Platelet-derived growth factor receptor alpha (Homo sapiens, UniProt P16234); test: Navigating the Kinome. Panel member name: PDGFRA; type: functional
Sequence of Platelet-derived growth factor receptor alpha (P16234 whole entry): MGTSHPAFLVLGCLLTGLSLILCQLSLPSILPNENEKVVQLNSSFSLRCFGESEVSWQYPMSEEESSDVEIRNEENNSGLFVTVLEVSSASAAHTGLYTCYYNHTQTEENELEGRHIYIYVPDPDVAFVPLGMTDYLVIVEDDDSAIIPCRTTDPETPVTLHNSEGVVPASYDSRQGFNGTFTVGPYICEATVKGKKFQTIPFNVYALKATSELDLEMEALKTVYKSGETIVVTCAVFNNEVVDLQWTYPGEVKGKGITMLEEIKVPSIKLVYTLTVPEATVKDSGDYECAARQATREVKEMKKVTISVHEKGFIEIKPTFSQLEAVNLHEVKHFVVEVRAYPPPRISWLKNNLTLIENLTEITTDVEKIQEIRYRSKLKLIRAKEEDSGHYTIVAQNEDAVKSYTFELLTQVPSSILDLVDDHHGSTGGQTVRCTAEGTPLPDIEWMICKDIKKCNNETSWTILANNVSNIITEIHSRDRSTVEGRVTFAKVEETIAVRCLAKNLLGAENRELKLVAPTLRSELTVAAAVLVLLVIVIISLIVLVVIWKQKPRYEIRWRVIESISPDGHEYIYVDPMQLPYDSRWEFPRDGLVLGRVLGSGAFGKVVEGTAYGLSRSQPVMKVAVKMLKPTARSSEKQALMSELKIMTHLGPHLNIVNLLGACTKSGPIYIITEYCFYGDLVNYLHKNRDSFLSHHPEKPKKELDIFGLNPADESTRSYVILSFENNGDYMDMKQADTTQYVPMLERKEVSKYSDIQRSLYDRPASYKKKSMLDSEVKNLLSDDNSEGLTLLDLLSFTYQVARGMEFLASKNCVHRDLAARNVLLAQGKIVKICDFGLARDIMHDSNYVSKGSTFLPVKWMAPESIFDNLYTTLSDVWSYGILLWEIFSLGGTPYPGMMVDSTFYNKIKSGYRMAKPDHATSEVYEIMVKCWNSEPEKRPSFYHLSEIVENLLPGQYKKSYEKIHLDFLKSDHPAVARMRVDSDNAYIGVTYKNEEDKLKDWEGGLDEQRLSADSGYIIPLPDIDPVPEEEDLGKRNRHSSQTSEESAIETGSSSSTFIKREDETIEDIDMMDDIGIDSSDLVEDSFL

[5] = target: T3, Serine/threonine-protein kinase D3 (Homo sapiens, UniProt O94806); type: functional;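 also: determined within a kinase panel screen, with PRKCN as the panel member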
T3 sequence (O94806 whole entry): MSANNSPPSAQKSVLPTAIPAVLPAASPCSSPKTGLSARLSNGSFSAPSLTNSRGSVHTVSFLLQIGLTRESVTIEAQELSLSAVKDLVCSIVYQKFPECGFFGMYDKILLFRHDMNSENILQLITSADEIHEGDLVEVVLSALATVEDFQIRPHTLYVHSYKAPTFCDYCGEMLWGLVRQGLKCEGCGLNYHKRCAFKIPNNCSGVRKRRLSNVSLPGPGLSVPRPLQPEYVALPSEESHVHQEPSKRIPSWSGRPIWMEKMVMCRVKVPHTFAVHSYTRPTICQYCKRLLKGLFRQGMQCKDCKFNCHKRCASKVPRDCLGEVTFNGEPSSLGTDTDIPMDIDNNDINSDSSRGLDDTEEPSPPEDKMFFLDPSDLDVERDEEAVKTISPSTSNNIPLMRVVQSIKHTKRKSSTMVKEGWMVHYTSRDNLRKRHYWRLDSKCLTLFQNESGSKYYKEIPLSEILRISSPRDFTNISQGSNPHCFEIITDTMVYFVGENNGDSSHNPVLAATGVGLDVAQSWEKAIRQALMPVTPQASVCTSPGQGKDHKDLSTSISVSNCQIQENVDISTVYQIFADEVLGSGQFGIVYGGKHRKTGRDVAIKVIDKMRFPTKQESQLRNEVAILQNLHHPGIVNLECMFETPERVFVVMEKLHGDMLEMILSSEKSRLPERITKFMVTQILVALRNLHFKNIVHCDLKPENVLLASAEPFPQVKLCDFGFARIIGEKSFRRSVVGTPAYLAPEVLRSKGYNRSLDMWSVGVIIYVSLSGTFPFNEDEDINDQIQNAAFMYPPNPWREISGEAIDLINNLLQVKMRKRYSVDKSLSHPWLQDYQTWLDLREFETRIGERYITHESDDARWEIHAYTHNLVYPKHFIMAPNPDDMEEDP

[6] = target: Dual specificity tyrosine-phosphorylation-regulated kinase 1A (Homo sapiens, UniProt Q13627); type: functional;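 also: measured against DYRK1A as one member of a broad kinome profiling panel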

Structure (SMILES) | EC50 [1] | IC50 [2] | EC50 [3] | Ki [4] | Ki [5] | Ki [6]
CC(C)(C)c1cc[n+](C2=C([N-]S(=O)(=O)c3cccs3)C(=O)c3ccccc3C2=O)cc1 | 2730 nM (active) | 23800 nM (active) | 950 nM (active) | – | – | –
Cc1ccc(F)c(NC(=O)Nc2ccc(-c3cccc4[nH]nc(N)c34)cc2)c1 [LINIFANIB] | – | – | – | 50.1 nM (active) | > 3980 nM (inactive) | > 2000 nM (inactive)
COc1c(-c2nc3ccccc3[nH]2)c(O)cc2oc(C)cc(=O)c12 | – | – | – | 631 nM (active) | 794 nM (active) | 200 nM (active)
Cc1cc([N+](=O)[O-])cc(/C=N\NC(=O)C2COc3ccccc3O2)c1O (centres undefined) | 2740 nM (active) | 17600 nM (active) | – | – | – | –
CCc1ccc(S(=O)(=O)/N=C2\C=C(Nc3ccc(O)cc3)C(=O)c3ccccc32)cc1 | 1860 nM (active) | – | 306 nM (active) | – | – | –
COC(=O)c1c(N)nc2ccccn12 | – | – | – | 79400 nM (active) | 50100 nM (active) | 39800 nM (active)
CCCNC(=O)c1c(N)n(CC2CCCO2)c2nc3ccccc3nc12 (centres undefined) | – | 15200 nM (active) | – | – | – | –
O=C1/C(=C\c2cccc(O)c2O)SC(=S)N1Cc1ccccc1 | 2770 nM (active) | – | 1950 nM (active) | – | – | –
